Measured values published in patent US20130065818A1, “Arylamide Compounds And Compositions And Uses Thereof” (POLYMEDIX, priority 2006, published 2013).
In brackets after ≈: the same amount, converted by molar mass. Like-named read-outs stand apart in the source and are kept apart here.

What was measured:
[1] = test system: Staphylococcus epidermidis (Coagulase-negative Staphylococcus) fluoroquinolone-susceptible; test: MIC, 25 ocular isolates, broth microdilution (Example 8); type: cell-based
Description: (§1) • Mueller-Hinton Broth in tubes was inoculated with 25 ocular isolates of Staphylococcus aureus fluoroquinolone-susceptible, Staphylococcus aureus fluoroquinolone-resistant, Staphylococcus epidermidis (Coagulase-negative Staphylococcus) fluoroquinolone-susceptible, Staphylococcus epidermidis (Coagulase-negative Staphylococcus) fluoroquinolone-resistant, Pseudomonas aeruginosa and Serratia marcescens, plus two controls (Staphylococcus aureus and E. coli) and incubated at 37° C. overnight on a shaker set at 250 rpm.
(§2) On the day of testing, a 640 μg/ml (1280 μg/ml for Serratia marcescens and Pseudomonas aeruginosa) concentration was prepared from a 1% stock solution in 0.01% acetic acid, 0.2% BSA in polypropylene tubes.
(§3) Serial doubling dilutions in 0.01% acetic acid, 0.2% BSA in 96 well polypropylene plates, which are used as reservoirs for the inoculation of the test plates, were carried out to obtain serial dilutions of test agents at 10 times the required test concentrations: 640, 320, 160, 80, 40, 20, 10, 5, 2.5, 1.25, and 0.625 μg/ml (1280, 640, 320, 160, 80, 40, 20, 10, 5, 2.5, and 1.25 μg/ml for Serratia marcescens and Pseudomonas aeruginosa).
(§4) Ten μl of diluted 10×test agents was added to each well of one row of the 96 well polypropylene plates from column 2 to column 12 (column 1 is a control for bacteria alone, with no peptide). Test agent concentrations in columns 2-12 were as follows: 64, 32, 16, 8, 4, 2, 1, 0.5, 0.25, 0.125, and 0.0625 μg/ml (128, 64, 32, 16, 8, 4, 2, 1, 0.5, 0.25, and 0.125 μg/ml for Serratia marcescens and Pseudomonas aeruginosa). The same peptide was in each of the 8 rows. One plate contained dilutions of one test agent and 8 bacterial isolates.
(§5) On the day of testing, the overnight bacterial broth cultures of Staphylococcus aureus fluoroquinolone-susceptible, Staphylococcus aureus fluoroquinolone-resistant, Staphylococcus epidermidis (Coagulase-negative Staphylococcus) fluoroquinolone-susceptible, Staphylococcus epidermidis (Coagulase-negative Staphylococcus) fluoroquinolone-resistant, Serratia marcescens, and Pseudomonas aeruginosa, plus two controls (Staphylococcus aureus and E. coli) were diluted in 5 ml of trypticase soy broth to yield turbidity equal to a 0.5 McFarland standard. The final inoculum for MIC testing for Staphylococcus aureus fluoroquinolone-susceptible, Staphylococcus aureus fluoroquinolone-resistant, Staphylococcus epidermidis (Coagulase-negative Staphylococcus) fluoroquinolone-susceptible, Staphylococcus epidermidis (Coagulase-negative Staphylococcus) fluoroquinolone-resistant, Serratia marcescens, and Pseudomonas aeruginosa was achieved by placing 0.05 ml of the turbidity adjusted sample to 5 ml of Mueller-Hinton broth.
(§6) Ninety μl of the bacterial suspensions was dispensed in each well from column 1 to column 12. Each bacterial isolate was placed in one row of a 96 well polypropylene plate containing the test agents. The plates were placed on shaker at 15 minutes at room temperature, and then incubated at 37° C. overnight. MICs were determined visually as the lowest concentration of drug that inhibits visible bacterial growth.

[2] = test system: Pseudomonas aeruginosa; test: as above; type: cell-based
Description: as §1, §2, §3, §4, §5, §6

Compound: N=C(N)NCCCCC(=O)Nc1cc(C(F)(F)F)cc(NC(=O)c2cc(C(=O)Nc3cc(C(F)(F)F)cc(NC(=O)CCCCNC(=N)N)c3O[C@@H]3CCNC3)ncn2)c1O[C@@H]1CCNC1 [Oligomer 4]
- MIC, sorted list for MIC50 and MIC90 Determinations (QSSE-A) ([1]; 25 isolates sorted ascending, Row 1-25, <0.0625 was Replaced with 0.03125): 0.25 µg/mL
- MIC50 ([1]; 25 isolates, Row 13): 0.125 µg/mL (≈ 0.133 µM)
- MIC90 ([1]; 25 isolates, Row 22): 0.25 µg/mL (≈ 0.267 µM)
- Range of MICs ([1]; 25 isolates, Summary of Results, <0.0625 was Replaced with 0.03125): 0.03125 to 0.25 µg/mL
- MIC ([1]; Staphylococcus epidermidis, 25 ocular isolates, read-out: Median MIC): ≤ 0.25 µg/mL
- MIC ([1]; Staphylococcus epidermidis, isolate 1—E511, read-out: MIC): 0.25 µg/mL (≈ 0.267 µM)
- MIC ([1]; Staphylococcus epidermidis, isolate 2—E489, read-out: MIC): 0.125 µg/mL (≈ 0.133 µM)
- MIC ([1]; Staphylococcus epidermidis, isolate 3—E491, read-out: MIC): 0.125 µg/mL (≈ 0.133 µM)
- MIC ([1]; Staphylococcus epidermidis, isolate 4—E476, read-out: MIC): 0.25 µg/mL (≈ 0.267 µM)
- MIC ([1]; Staphylococcus epidermidis, isolate 5—E473, read-out: MIC): 0.25 µg/mL (≈ 0.267 µM)
- MIC ([1]; Staphylococcus epidermidis, isolate 6—E462, read-out: MIC): 0.125 µg/mL (≈ 0.133 µM)
- MIC ([1]; Staphylococcus epidermidis, isolate 7—E460, read-out: MIC): 0.125 µg/mL (≈ 0.133 µM)
- MIC ([1]; Staphylococcus epidermidis, isolate 8—E453, read-out: MIC): 0.125 µg/mL (≈ 0.133 µM)
- MIC ([1]; Staphylococcus epidermidis, isolate 9—E448, read-out: MIC): 0.125 µg/mL (≈ 0.133 µM)
- MIC ([1]; Staphylococcus epidermidis, isolate 10—E443, read-out: MIC): < 0.0625 µg/mL
- MIC ([1]; Staphylococcus epidermidis, isolate 11—E441, read-out: MIC): < 0.0625 µg/mL
- MIC ([1]; Staphylococcus epidermidis, isolate 12—E438, read-out: MIC): 0.125 µg/mL (≈ 0.133 µM)
- MIC ([1]; Staphylococcus epidermidis, isolate 13—E437, read-out: MIC): 0.125 µg/mL (≈ 0.133 µM)
- MIC ([1]; Staphylococcus epidermidis, isolate 14—E434, read-out: MIC): 0.125 µg/mL (≈ 0.133 µM)
- MIC ([1]; Staphylococcus epidermidis, isolate 15—E433, read-out: MIC): 0.125 µg/mL (≈ 0.133 µM)
- MIC ([1]; Staphylococcus epidermidis, isolate 16—E430, read-out: MIC): < 0.0625 µg/mL
- MIC ([1]; Staphylococcus epidermidis, isolate 17—E420, read-out: MIC): 0.125 µg/mL (≈ 0.133 µM)
- MIC ([1]; Staphylococcus epidermidis, isolate 18—E419, read-out: MIC): 0.125 µg/mL (≈ 0.133 µM)
- MIC ([1]; Staphylococcus epidermidis, isolate 19—E403, read-out: MIC): 0.125 µg/mL (≈ 0.133 µM)
- MIC ([1]; Staphylococcus epidermidis, isolate 20—E394, read-out: MIC): 0.125 µg/mL (≈ 0.133 µM)
- MIC ([1]; Staphylococcus epidermidis, isolate 21—E393, read-out: MIC): 0.125 µg/mL (≈ 0.133 µM)
- MIC ([1]; Staphylococcus epidermidis, isolate 22—E328, read-out: MIC): 0.25 µg/mL (≈ 0.267 µM)
- MIC ([1]; Staphylococcus epidermidis, isolate 23—E382, read-out: MIC): 0.125 µg/mL (≈ 0.133 µM)
- MIC ([1]; Staphylococcus epidermidis, isolate 24—E381, read-out: MIC): 0.125 µg/mL (≈ 0.133 µM)
- MIC ([1]; Staphylococcus epidermidis, isolate 25—E372, read-out: MIC): 0.25 µg/mL (≈ 0.267 µM)
- MIC ([1]; Staphylococcus epidermidis, n=25 per group, read-out: Median MIC): 0.125 µg/mL (≈ 0.133 µM)
- MIC50 ([1]; Staphylococcus epidermidis, 25 isolates, Summary of Results, read-out: MIC50): 0.125 µg/mL (≈ 0.133 µM)
- MIC90 ([1]; Staphylococcus epidermidis, 25 isolates, Summary of Results, read-out: MIC90): 0.25 µg/mL (≈ 0.267 µM)
- MIC ([1]; Staphylococcus epidermidis, 25 isolates, Summary of Results, read-out: Median MIC): 0.125 µg/mL (≈ 0.133 µM)
- MIC50 ([1]; n=25 per group): 0.125 µg/mL (≈ 0.133 µM)
- MIC90 ([1]; n=25 per group): 0.25 µg/mL (≈ 0.267 µM)
- Range of MICs ([1]; n=25 per group): 0.03125 to 0.25 µg/mL
- MIC50 ([2]; 25 isolates, Row 13): 4 µg/mL (≈ 4.27 µM)
- Range of MICs ([2]; 25 isolates, Summary of Results, >128 was Replaced with 256): 0.5 to 8 µg/mL
- MIC ([2]; Pseudomonas aeruginosa, 25 ocular isolates, read-out: Median MIC): 4 µg/mL (≈ 4.27 µM)
- MIC ([2]; Pseudomonas aeruginosa, isolate 1—K1673, read-out: MIC): 2 µg/mL (≈ 2.13 µM)
- MIC ([2]; Pseudomonas aeruginosa, isolate 2—K1668, read-out: MIC): 2 µg/mL (≈ 2.13 µM)
- MIC ([2]; Pseudomonas aeruginosa, isolate 3—K1662, read-out: MIC): 2 µg/mL (≈ 2.13 µM)
- MIC ([2]; Pseudomonas aeruginosa, isolate 4—K1657, read-out: MIC): 2 µg/mL (≈ 2.13 µM)
- MIC ([2]; Pseudomonas aeruginosa, isolate 5—K1651, read-out: MIC): 4 µg/mL (≈ 4.27 µM)
- MIC ([2]; Pseudomonas aeruginosa, isolate 6—K1649, read-out: MIC): 4 µg/mL (≈ 4.27 µM)
- MIC ([2]; Pseudomonas aeruginosa, isolate 7—K1564, read-out: MIC): 8 µg/mL (≈ 8.54 µM)
- MIC ([2]; Pseudomonas aeruginosa, isolate 8—K1636, read-out: MIC): 0.5 µg/mL (≈ 0.534 µM)
- MIC ([2]; Pseudomonas aeruginosa, isolate 9—K1634, read-out: MIC): 2 µg/mL (≈ 2.13 µM)
- MIC ([2]; Pseudomonas aeruginosa, isolate 10—K1633, read-out: MIC): 4 µg/mL (≈ 4.27 µM)
- MIC ([2]; Pseudomonas aeruginosa, isolate 11—K1632, read-out: MIC): 4 µg/mL (≈ 4.27 µM)
- MIC ([2]; Pseudomonas aeruginosa, isolate 12—K1631, read-out: MIC): 8 µg/mL (≈ 8.54 µM)
- MIC ([2]; Pseudomonas aeruginosa, isolate 13—K1629, read-out: MIC): 4 µg/mL (≈ 4.27 µM)
- MIC ([2]; Pseudomonas aeruginosa, isolate 14—K1627, read-out: MIC): 2 µg/mL (≈ 2.13 µM)
- MIC ([2]; Pseudomonas aeruginosa, isolate 15—K1626, read-out: MIC): 8 µg/mL (≈ 8.54 µM)
- MIC ([2]; Pseudomonas aeruginosa, isolate 16—K1625, read-out: MIC): 4 µg/mL (≈ 4.27 µM)
- MIC ([2]; Pseudomonas aeruginosa, isolate 17—K1562, read-out: MIC): 4 µg/mL (≈ 4.27 µM)
- MIC ([2]; Pseudomonas aeruginosa, isolate 18—K1613, read-out: MIC): 4 µg/mL (≈ 4.27 µM)
- MIC ([2]; Pseudomonas aeruginosa, isolate 19—K1553, read-out: MIC): 2 µg/mL (≈ 2.13 µM)
- MIC ([2]; Pseudomonas aeruginosa, isolate 20—K1594, read-out: MIC): 2 µg/mL (≈ 2.13 µM)
- MIC ([2]; Pseudomonas aeruginosa, isolate 21—K1588, read-out: MIC): 4 µg/mL (≈ 4.27 µM)
- MIC ([2]; Pseudomonas aeruginosa, isolate 22—K1554, read-out: MIC): 4 µg/mL (≈ 4.27 µM)
- MIC ([2]; Pseudomonas aeruginosa, isolate 23—K1580, read-out: MIC): 2 µg/mL (≈ 2.13 µM)
- MIC ([2]; Pseudomonas aeruginosa, isolate 24—K1577, read-out: MIC): 2 µg/mL (≈ 2.13 µM)
- MIC ([2]; Pseudomonas aeruginosa, isolate 25—K1576, read-out: MIC): 4 µg/mL (≈ 4.27 µM)
- MIC ([2]; Pseudomonas aeruginosa, n=25 per group, read-out: Median MIC): 4 µg/mL (≈ 4.27 µM)
- MIC50 ([2]; Pseudomonas aeruginosa, 25 isolates, Summary of Results, read-out: MIC50): 4 µg/mL (≈ 4.27 µM)
- MIC90 ([2]; Pseudomonas aeruginosa, 25 isolates, Summary of Results, read-out: MIC90): 4 µg/mL (≈ 4.27 µM)
- MIC ([2]; Pseudomonas aeruginosa, 25 isolates, Summary of Results, read-out: Median MIC): 4 µg/mL (≈ 4.27 µM)
- MIC50 ([2]; n=25 per group): 4 µg/mL (≈ 4.27 µM)
- MIC90 ([2]; n=25 per group): 4 µg/mL (≈ 4.27 µM)
- Range of MICs ([2]; n=25 per group): 0.5 to 8 µg/mL
